In patent US20220110325A1, “PESTICIDALLY ACTIVE AZOLE-AMIDE COMPOUNDS” (SYNGENTA CROP PROTECTION AG, priority 2019, published 2022):

Legend:
Assay type in all cases: in vivo
[1] = tested on: Spodoptera littoralis (Egyptian Cotton Leaf Worm); test: Spodoptera littoralis (Egyptian cotton leaf worm), sprayed cotton leaf discs; details: foliar, 72 h, application rate of 200 ppm, L1 larvae, 3 days after infestation, read-out: control in at least one of the three categories (mortality, anti-feeding, or growth inhibition)
Description: Example B10: Spodoptera littoralis (Egyptian Cotton Leaf Worm)
Cotton leaf discs were placed onto agar in 24-well microtiter plates and sprayed with aqueous test solutions prepared from 10,000 ppm DMSO stock solutions. After drying the leaf discs were infested with five L1 larvae. The samples were assessed for mortality, anti-feeding effect, and growth inhibition in comparison to untreated samples 3 days after infestation. Control of Spodoptera littoralis by a test sample is given when at least one of the categories mortality, anti-feedant effect, and growth inhibition is higher than the untreated sample.

[2] = tested on: Diabrotica balteata (corn root worm); test: Diabrotica balteata (corn root worm), sprayed maize sprouts; details: 96 h, application rate of 200 ppm, L2 larvae, 4 days after infestation, read-out: control in at least one of the two categories (mortality or growth inhibition)
Description: Example B2: Diabrotica Balteata (Corn Root Worm)
Maize sprouts placed onto an agar layer in 24-well microtiter plates were treated with aqueous test solutions prepared from 10,000 ppm DMSO stock solutions by spraying. After drying, the plates were infested with L2 larvae (6 to 10 per well). The samples were assessed for mortality and growth inhibition in comparison to untreated samples 4 days after infestation.

[3] = tested on: Plutella xylostella (Diamond Back Moth); test: Plutella xylostella (diamond back moth), artificial diet, eggs, 24-well; details: 192 h, application rate of 200 ppm, eggs on artificial diet, 8 days after infestation, read-out: control in at least one of the two categories (mortality or growth inhibition)
Description: Example B5: Plutella xylostella (Diamond Back Moth)
24-well microtiter plates with artificial diet were treated with aqueous test solutions prepared from 10,000 ppm DMSO stock solutions by pipetting. After drying, Plutella eggs were pipetted through a plastic stencil onto a gel blotting paper and the plate was closed with it. The samples were assessed for mortality and growth inhibition in comparison to untreated samples 8 days after infestation.

[4] = tested on: Chilo suppressalis (Striped Rice Stemborer); test: Chilo suppressalis (striped rice stemborer), artificial diet; details: 144 h, application rate of 200 ppm, L2 larvae, 6 days after infestation, read-out: control in at least one of the three categories (mortality, anti-feeding or growth inhibition)
Description: Example 14: Chilo suppressalis (Striped Rice Stemborer)
24-well microtiter plates with artificial diet were treated with aqueous test solutions prepared from 10,000 ppm DMSO stock solutions by pipetting. After drying, the plates were infested with L2 larvae (6-8 per well). The samples were assessed for mortality, anti-feeding effect, and growth inhibition in comparison to untreated samples 6 days after infestation. Control of Chilo suppressalis by a test sample is given when at least one of the categories mortality, anti-feedant effect, and growth inhibition is higher than the untreated sample.

[5] = tested on: Plutella xylostella (Diamondback Moth); test: Plutella xylostella (diamondback moth), 96-well artificial diet, eggs; details: 216 h, application rate of 500 ppm, eggs/L1 larvae, 9 days after infestation
Description: Example B13: Plutella xylostella (Diamondback Moth)
96-well microtiter plates containing artificial diet were treated with aqueous test solutions, prepared from 10,000 ppm DMSO stock solutions, by a liquid handling robot. After drying, eggs (˜30 per well) were infested onto a netted lid which was suspended above the diet. The eggs hatch and L1 larvae move down to the diet. The samples were assessed for mortality 9 days after infestation.

[6] = tested on: Myzus persicae (Green Peach Aphid); test: Myzus persicae (green peach aphid), intrinsic activity; details: 120 h, test rate of 12 ppm, sucrose solution through Parafilm, 5 days after infestation
Excerpt: Example B8: Myzus persicae (Green Peach Aphid). Intrinsic Activity
Test compounds prepared from 10,000 ppm DMSO stock solutions were applied by pipette into 24-well microtiter plates and mixed with sucrose solution. The plates were closed with a stretched Parafilm. A plastic stencil with 24 holes was placed onto the plate and infested pea seedlings were placed directly on the Parafilm. The infested plate was closed with a gel blotting paper and another plastic stencil and then turned upside down. The samples were assessed for mortality 5 days after infestation.

[7] = tested on: Euschistus heros (Neotropical Brown Stink Bug); test: Euschistus heros (neotropical brown stink bug), sprayed soybean leaves; details: 120 h, application rate of 200 ppm, N2 nymphs, 5 days after infestation, read-out: control in at least one of the two categories (mortality or growth inhibition)
Description: Example B3: Euschistus heros(Neotropical Brown Stink Bug)
Soybean leaves on agar in 24-well microtiter plates were sprayed with aqueous test solutions prepared from 10,000 ppm DMSO stock solutions. After drying the leaves were infested with N2 nymphs. The samples were assessed for mortality and growth inhibition in comparison to untreated samples 5 days after infestation.

[8] = tested on: Tetranychus urticae (Two-Spotted Spider Mite); test: Tetranychus urticae (two-spotted spider mite), feeding/contact activity; details: 192 h
Description: Example B11: Tetranychus urticae (Two-Spotted Spider Mite):Feeding/Contact Activity
Bean leaf discs on agar in 24-well microtiter plates were sprayed with aqueous test solutions prepared from 10,000 ppm DMSO stock solutions. After drying the leaf discs were infested with a mite population of mixed ages. The samples were assessed for mortality on mixed population (mobile stages) 8 days after infestation.

CC(NC(=O)c1cc(C(F)(F)F)cc(C(F)(F)F)c1)c1ncnn1-c1ccc(OCC(F)(F)F)cn1 (stereo not drawn) [Compound P8, N-[1-[2-[5-(2,2,2-trifluoroethoxy)-2-pyridyl]-1,2,4-triazol-3-yl]ethyl]-3,5-bis(trifluoromethyl)benzamide]
≥ 80%: percent control (mortality, anti-feeding or growth inhibition) at 200 ppm [1] | percent control (mortality or growth inhibition) at 200 ppm [2] | percent control (mortality or growth inhibition) at 200 ppm [3] | percent control (mortality, anti-feedant effect or growth inhibition) at 200 ppm [4]

CC(NC(=O)c1cc(C(F)(F)F)cc(C(F)(F)F)c1)c1ncnn1-c1ccc(O/C=C\C(F)(F)F)cn1 (stereo not drawn) [Compound P10, 3,5-bis(trifluoromethyl)-N-[1-[2-[5-[(Z)-3,3,3-trifluoroprop-1-enoxy]-2-pyridyl]-1,2,4-triazol-3-yl]ethyl]benzamide]
≥ 80%: mortality at 500 ppm [5] | percent control (mortality or growth inhibition) at 200 ppm [3] | percent control (mortality, anti-feedant effect or growth inhibition) at 200 ppm [4]

CC(NC(=O)c1cc(OCC(F)F)cc(C(F)(F)F)c1)c1ncnn1-c1ncc(OC(F)F)cn1 (stereo not drawn) [Compound P12, 3-(2,2-difluoroethoxy)-N-[1-[2-[5-(difluoromethoxy)pyrimidin-2-yl]-1,2,4-triazol-3-yl]ethyl]-5-(trifluoromethyl) benzamide]
≥ 80%: percent control (mortality, anti-feeding or growth inhibition) at 200 ppm [1] | mortality at 12 ppm [6] | percent control (mortality or growth inhibition) at 200 ppm [3] | percent control (mortality, anti-feedant effect or growth inhibition) at 200 ppm [4]

CC(NC(=O)c1cc(C(F)(F)F)cc(C(F)(F)F)c1)c1ncnn1-c1ncc(OC(F)F)cn1 (stereo not drawn) [Compound P3, N-[1-[2-[5-(difluoromethoxy)pyrimidin-2-yl]-1,2,4-triazol-3-yl]ethyl]-3,5-bis(trifluoromethyl) benzamide]
≥ 80%: percent control (mortality, anti-feeding or growth inhibition) at 200 ppm [1] | percent control (mortality or growth inhibition) at 200 ppm [7] | percent control (mortality or growth inhibition) at 200 ppm [2] | mortality at 12 ppm [6] | percent control (mortality or growth inhibition) at 200 ppm [3] | percent control (mortality, anti-feedant effect or growth inhibition) at 200 ppm [4]

CC(NC(=O)c1cc(C(F)(F)F)cc(C(F)(F)F)c1)c1ncnn1-c1ncc(OCC(F)F)cn1 (stereo not drawn) [Compound P5, N-[1-[2-[5-(2,2-difluoroethoxy)pyrimidin-2-yl]-1,2,4-triazol-3-yl]ethyl]-3,5-bis(trifluoromethyl) benzamide]
≥ 80%: percent control (mortality, anti-feeding or growth inhibition) at 200 ppm [1] | percent control (mortality or growth inhibition) at 200 ppm [7] | percent control (mortality or growth inhibition) at 200 ppm [2] | percent control (mortality or growth inhibition) at 200 ppm [3] | percent control (mortality, anti-feedant effect or growth inhibition) at 200 ppm [4]

C[C@H](NC(=O)c1cc(C(F)(F)F)cc(C(F)(F)F)c1)c1ncnn1-c1ncc(OC(F)(F)F)cn1 [Compound P7, N-[(1S)-1-[2-[5-(trifluoromethoxy)pyrimidin-2-yl]-1,2,4-triazol-3-yl]ethyl]-3,5-bis(trifluoromethyl) benzamide]
≥ 80%: percent control (mortality, anti-feeding or growth inhibition) at 200 ppm [1] | percent control (mortality or growth inhibition) at 200 ppm [2] | percent control (mortality or growth inhibition) at 200 ppm [3]

CC(NC(=O)c1cc(C(F)(F)F)cc(C(F)(F)F)c1)c1ncnn1-c1ccc(OCC(F)F)cn1 (stereo not drawn) [Compound P9, N-[1-[2-[5-(2,2-difluoroethoxy)-2-pyridyl]-1,2,4-triazol-3-yl]ethyl]-3,5-bis(trifluoromethyl) benzamide]
≥ 80%: percent control (mortality, anti-feeding or growth inhibition) at 200 ppm [1] | percent control (mortality or growth inhibition) at 200 ppm [2] | percent control (mortality or growth inhibition) at 200 ppm [3] | percent control (mortality, anti-feedant effect or growth inhibition) at 200 ppm [4]

CC(NC(=O)c1cc(C(F)(F)F)cc(C(F)(F)F)c1)c1ncnn1-c1ccc(OC(F)(F)F)cn1 (stereo not drawn) [Compound P6, N-[1-[2-[5-(trifluoromethoxy)-2-pyridyl]-1,2,4-triazol-3-yl]ethyl]-3,5-bis(trifluoromethyl) benzamide]
≥ 80%: percent control (mortality, anti-feeding or growth inhibition) at 200 ppm [1] | percent control (mortality or growth inhibition) at 200 ppm [7] | percent control (mortality or growth inhibition) at 200 ppm [2] | mortality at 500 ppm [5] | mortality at 200 ppm [8] | percent control (mortality or growth inhibition) at 200 ppm [3] | percent control (mortality, anti-feedant effect or growth inhibition) at 200 ppm [4]

CC(NC(=O)c1cc(C(F)(F)F)cc(C(F)(F)F)c1)c1ncnn1-c1ncc(OCC(F)(F)F)cn1 (stereo not drawn) [Compound P4, N-[1-[2-[5-(2,2,2-trifluoroethoxy)pyrimidin-2-yl]-1,2,4-triazol-3-yl]ethyl]-3,5-bis(trifluoromethyl) benzamide]
≥ 80%: percent control (mortality, anti-feeding or growth inhibition) at 200 ppm [1] | percent control (mortality or growth inhibition) at 200 ppm [2] | percent control (mortality or growth inhibition) at 200 ppm [3] | percent control (mortality, anti-feedant effect or growth inhibition) at 200 ppm [4]

CC(NC(=O)c1cc(C(F)(F)F)cc(C(F)(F)F)c1)c1ncnn1-c1ccc(OC(F)F)cn1 (stereo not drawn) [Compound P11, N-[1-[2-[5-(difluoromethoxy)-2-pyridyl]-1,2,4-triazol-3-yl]ethyl]-3,5-bis(trifluoromethyl) benzamide]
≥ 80%: percent control (mortality, anti-feeding or growth inhibition) at 200 ppm [1] | percent control (mortality or growth inhibition) at 200 ppm [2] | mortality at 500 ppm [5] | percent control (mortality or growth inhibition) at 200 ppm [3] | percent control (mortality, anti-feedant effect or growth inhibition) at 200 ppm [4]
